Patent US20170190671A1, “BIS(ARYL)CATECHOL DERIVATIVES AS HERBICIDES” (E I DU PONT DE NEMOURS AND COMPANY, priority 2014, published 2017)

Key:
Test in all cases: Test C postemergence
Assay type in all cases: in vivo
[1] = tested on: waterhemp (common waterhemp, Amaranthus rudis); conditions: Amaranthus tuberculatus, post-emergence, Postemergence, scale 0 to 100, read-out: Plant response rating, Waterhemp
In short: (§1)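 Greenhouse test; preemergence to seeds in loam/sand soil, or postemergence spray to 2-18 cm, 1- to 4-leaf plants in peat/vermiculite medium; compound in non-phytotoxic solvent plus surfactant. Visual rating vs controls at 13-15 d, 0 = no effect, 100 = complete control.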

[2] = tested on: chickweed (common chickweed, Stellaria media); conditions: Stellaria media, post-emergence, Postemergence, scale 0 to 100, read-out: Plant response rating, Chickweed
In short: as §1

[3] = tested on: blackgrass (Alopecurus myosuroides); conditions: Alopecurus myosuroides, post-emergence, 336 h, Postemergence, scale 0 to 100, read-out: Plant response rating, Blackgrass
In short: as §1

[4] = tested on: johnsongrass (Sorghum halepense); conditions: Sorghum halepense, post-emergence, 336 h, Postemergence, scale 0 to 100, read-out: Plant response rating, Johnsongrass
In short: as §1

[5] = tested on: barnyardgrass (Echinochloa crus-galli); conditions: Echinochloa crus-galli, post-emergence, Postemergence, scale 0 to 100, read-out: Plant response rating, Barnyardgrass
In short: as §1

wild oat (Avena fatua) = conditions: Avena fatua, post-emergence, Postemergence, scale 0 to 100, read-out: Plant response rating, Oat, Wild
In short: as §1

soybean (Glycine max) = conditions: Glycine max, post-emergence, Postemergence, scale 0 to 100, read-out: Plant response rating, Soybean
In short: as §1

[6] = tested on: pigweed (Amaranthus retroflexus); conditions: Amaranthus retroflexus, post-emergence, 336 h, Postemergence, scale 0 to 100, read-out: Plant response rating, Pigweed
In short: as §1

[7] = tested on: Italian ryegrass (Lolium multiflorum); conditions: Lolium multiflorum, post-emergence, 336 h, Postemergence, scale 0 to 100, read-out: Plant response rating, Ryegrass, Italian
In short: as §1

[8] = tested on: ragweed (common ragweed, Ambrosia elatior); conditions: Ambrosia artemisiifolia, post-emergence, 336 h, Postemergence, scale 0 to 100, read-out: Plant response rating, Ragweed
In short: as §1

[9] = tested on: oilseed rape (Brassica napus); conditions: Brassica napus, post-emergence, Postemergence, scale 0 to 100, read-out: Plant response rating, Oilseed Rape
In short: as §1

[10] = tested on: yellow nutsedge (Cyperus esculentus); conditions: Cyperus, post-emergence, 336 h, Postemergence, scale 0 to 100, read-out: Plant response rating, Nutsedge, Yellow
In short: as §1

[11] = tested on: lambsquarters (Chenopodium album); conditions: Chenopodium album, post-emergence, 336 h, Postemergence, scale 0 to 100, read-out: Plant response rating, Lambsquarters
In short: as §1

[12] = tested on: giant foxtail (Setaria faberii); conditions: Setaria faberi, post-emergence, 336 h, Postemergence, scale 0 to 100, read-out: Plant response rating, Foxtail, Giant
In short: as §1

corn (Zea mays) = conditions: Zea mays, post-emergence, 336 h, Postemergence, scale 0 to 100
In short: as §1

Clc1cnc(Oc2cccc(Cl)c2Oc2ncc(Br)cn2)nc1 [Compound 17, 5-bromo-2-[2-chloro-6-[(5-chloro-2-pyrimidinyl)oxy]phenoxy]pyrimidine]
45%: pest or weed control at 62 g/ha ([8]; 62 g ai/ha)
15%: pest or weed control at 125 g/ha ([3]; 125 g ai/ha) | pest or weed control at 250 g/ha ([3]; 250 g ai/ha) | pest or weed control at 250 g/ha (wild oat (Avena fatua); 250 g ai/ha) | pest or weed control at 250 g/ha ([7]; 250 g ai/ha) | pest or weed control at 62 g/ha ([12]; 62 g ai/ha) | Corn plant response rating (crop injury, 0 = no effect, 100 = complete kill) at 250 g/ha (corn (Zea mays); 250 g ai/ha)
85%: pest or weed control at 250 g/ha ([2]; 250 g ai/ha)
95%: pest or weed control at 62 g/ha ([1]; 62 g ai/ha) | pest or weed control at 125 g/ha ([1]; 125 g ai/ha) | pest or weed control at 62 g/ha ([6]; 62 g ai/ha) | pest or weed control at 250 g/ha ([11]; 250 g ai/ha)
40%: pest or weed control at 31 g/ha ([2]; 31 g ai/ha) | plant injury at 250 g/ha ([9]; 250 g ai/ha) | pest or weed control at 250 g/ha ([12]; 250 g ai/ha)
98%: pest or weed control at 250 g/ha ([1]; 250 g ai/ha) | pest or weed control at 125 g/ha ([6]; 125 g ai/ha) | pest or weed control at 250 g/ha ([6]; 250 g ai/ha)
50%: pest or weed control at 31 g/ha ([8]; 31 g ai/ha) | plant injury at 31 g/ha ([9]; 31 g ai/ha) | plant injury at 62 g/ha ([9]; 62 g ai/ha)
55%: plant injury at 31 g/ha (soybean (Glycine max); 31 g ai/ha) | pest or weed control at 250 g/ha ([8]; 250 g ai/ha)
5%: pest or weed control at 31 g/ha ([3]; 31 g ai/ha) | pest or weed control at 62 g/ha ([3]; 62 g ai/ha) | pest or weed control at 31 g/ha ([4]; 31 g ai/ha) | pest or weed control at 62 g/ha ([4]; 62 g ai/ha) | pest or weed control at 125 g/ha ([4]; 125 g ai/ha) | pest or weed control at 31 g/ha ([5]; 31 g ai/ha) | pest or weed control at 62 g/ha ([5]; 62 g ai/ha) | pest or weed control at 125 g/ha (wild oat (Avena fatua); 125 g ai/ha) | pest or weed control at 125 g/ha ([7]; 125 g ai/ha) | pest or weed control at 31 g/ha ([10]; 31 g ai/ha) | pest or weed control at 62 g/ha ([10]; 62 g ai/ha) | pest or weed control at 125 g/ha ([10]; 125 g ai/ha) | pest or weed control at 31 g/ha ([12]; 31 g ai/ha) | Corn plant response rating (crop injury, 0 = no effect, 100 = complete kill) at 31 g/ha (corn (Zea mays); 31 g ai/ha)
80%: plant injury at 62 g/ha (soybean (Glycine max); 62 g ai/ha) | plant injury at 125 g/ha ([9]; 125 g ai/ha) | pest or weed control at 31 g/ha ([11]; 31 g ai/ha)
20%: pest or weed control at 250 g/ha ([10]; 250 g ai/ha) | Corn plant response rating (crop injury, 0 = no effect, 100 = complete kill) at 62 g/ha (corn (Zea mays); 62 g ai/ha) | Corn plant response rating (crop injury, 0 = no effect, 100 = complete kill) at 125 g/ha (corn (Zea mays); 125 g ai/ha)
0%: pest or weed control at 31 g/ha (wild oat (Avena fatua); 31 g ai/ha) | pest or weed control at 62 g/ha (wild oat (Avena fatua); 62 g ai/ha) | pest or weed control at 31 g/ha ([7]; 31 g ai/ha) | pest or weed control at 62 g/ha ([7]; 62 g ai/ha)
10%: pest or weed control at 250 g/ha ([4]; 250 g ai/ha) | pest or weed control at 125 g/ha ([5]; 125 g ai/ha) | pest or weed control at 250 g/ha ([5]; 250 g ai/ha) | pest or weed control at 125 g/ha ([12]; 125 g ai/ha)
60%: pest or weed control at 125 g/ha ([2]; 125 g ai/ha) | pest or weed control at 125 g/ha ([8]; 125 g ai/ha)
90%: pest or weed control at 31 g/ha ([1]; 31 g ai/ha) | plant injury at 125 g/ha (soybean (Glycine max); 125 g ai/ha) | plant injury at 250 g/ha (soybean (Glycine max); 250 g ai/ha) | pest or weed control at 31 g/ha ([6]; 31 g ai/ha) | pest or weed control at 125 g/ha ([11]; 125 g ai/ha)
70%: pest or weed control at 62 g/ha ([2]; 62 g ai/ha) | pest or weed control at 62 g/ha ([11]; 62 g ai/ha)
